The values that follow are results of earlier work, collected in patent EP2708126A1, “Insecticidal aerosol” (priority 2012, dated 2014).

The conditions of this data set: rats, through ingestion.
`CC1(C)C(C=C(Cl)Cl)C1C(=O)OC(C#N)c1cccc(Oc2ccccc2)c1` (racemic) [Alpha cypermethrin]: the median lethal dose (LD50) is reported as 79 mg/kg. Regarding `CC1(C)C(C=C(Cl)Cl)C1C(=O)OCc1cccc(Oc2ccccc2)c1` (stereo not drawn) [Permethrin, 3-phenoxybenzyl-3-(2,2-dichlorovinyl)-2,2-dimethylcyclopropane-carboxylate], the LD50 is given as 383 mg/kg. For the molecule `CNC(=O)Oc1cccc2c1OC(C)(C)O2` [Bendiocarb, 2,2-dimethyl-1,3-benzodioxol-4-yl-N-methylcarbamate], the LD50 is 55 mg/kg.

As usually defined, the LD50 is the dose expected to kill half of the subjects tested.
